Results on 1 compound are retold here after patent publication US20210205292A1, “INHIBITORS OF CREB-CBP INTERACTION FOR TREATMENT OF LEUKEMIA” (The Board of Trustees of the Leland Stanford Junior …, priority 2016, published 2021).

In experiment [1] the target is T1, KIX domain of CBP, Arginine-600 to Alanine mutant (GST fusion) (Homo sapiens, UniProt Q92793, R601A).
T1 construct: spans CBP amino acids 586-666; made in house; host or cells: E. coli BL21(DE3)
As to the kind of experiment: Biacore surface plasmon resonance, binding to KIX Arg-600-Ala mutant versus native KIX. The following applies: 5 μM. On the procedure:
KIX domain mutants were created by standard cloning and mutagenesis methods in the pGEX4T3 vector (GE Healthcare Life Sciences). GST-KIX fusion proteins were expressed in BL21(DE3-) cells (New England Biolabs) following induction with 1 mM IPTG for 6 hours at 37 degrees. GST-KIX and its mutants were purified with the B-PER GST Fusion Protein Spin Purification Kit (Thermo Scientific/Pierce). Surface Plasmon Resonance (Biacore) analysis was performed on a GE Biacore 3000 surface plasmon resonance instrument in collaboration with the Stanford Protein and Nucleic Acid (PAN) Facility.
To confirm the binding of Compound A to the KIX domain of CBP, the KIX domain was expressed and purified as a fusion protein with Glutathione-S-Transferase (GST). Binding of Compound A to the KIX domain and two KIX domain mutants in which residues critical for CREB binding were altered or removed (Arg-600 mutated to Alanine or deletion of amino acids 586-602) was determined by Surface Plasmon Resonance (Biacore) analysis (FIG. 1, panel B). Mutation of Arginine-600 to Alanine reduced binding of Compound A by ˜45%, while a KIX domain mutant lacking amino acids 586-602 reduced binding by ˜70%. […] A hypothetical binding model between Compound A and CBP KIX domain is shown (FIG. 1, panel C). […]
On the technique in general: Surface plasmon resonance follows binding to a sensor surface in real time, without labels.

The test system of experiment [2] is primary AML patient bone marrow samples. As to the kind of experiment: Primary AML patient bone marrow samples, Trypan blue exclusion assay. In kind it is cell-based, human. The following applies: 2 μM, 72 hours. Here is the method:
AML cell lines were purchased from ATCC and maintained with IMDM (Gibco) supplemented with 10% FBS (Fisher Scientific) and 1% PSG (Gibco). Cells were plated at a density of 2-4×10^5 cells/ml, and treated with various doses of Compound A in 0.1% DMSO or 0.1% DMSO alone. Cell counts and viability were determined using the Vi-CELL XR Cell Viability Analyzer (Beckman Coulter). HL-60 and KG-1 cells overexpressing CREB or CBP were generated using lentiviral gene delivery with subsequent puromycin selection and FACs sorting for GFP. CREB knockdown was achieved by infecting cells with a lentivirus expressing the shRNA sequence 5′-[…]-3′ (SEQ ID NO:). For chemotherapy combination experiments, combination index values were calculated using median effects analysis on Calcusyn software. Human patient bone marrow samples were cultured in DMEM plus 20% FBS and 1×PSG, supplemented with recombinant GM-CSF (20 ng/ml), G-CSF (20 ng/ml), SCF (50 ng/ml), IL-3 (20 ng/ml), and IL-6 (10 ng/ml). Cells were plated at a concentration of 1×10^5 cells/ml in a 12-well plate. Vehicle (0.1% DMSO) or Compound A (2 μM) was added for up to 72 hours. All samples contained >85% AML blasts and were not sorted prior to performing experiments. […] Single cell suspensions of bone marrow culture were subsequently analyzed on a D×P10 flow cytometer (Cytek). […]

T1 sequence (Q92793 586-666 R601A): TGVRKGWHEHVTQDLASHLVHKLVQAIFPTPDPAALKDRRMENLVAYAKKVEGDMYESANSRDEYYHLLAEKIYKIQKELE

Turning to `N#Cc1ccc(NC(=O)c2cc3ccccc3cc2O)cc1` [Compound A, N-(4-cyanophenyl)-3-hydroxy-2-naphthamide], the “reduction of binding of Compound A by mutation of Arginine-600 to Alanine” value in experiment [1] is about 45%. For the same compound, the “decreased viable cell count” value in experiment [2] is “a range of responsiveness”.
